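Protocol summary: plate cells (96-well), add compound at 5 concentrations, incubate 48 h, interpolate endpoints linearly. The concentration for 50% growth inhibition is given as GI50.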 The source made the active and inactive calls. Rule as the data show it: active = GI50 up to about 1.1 µM and inactive = higher.
Key:
Test in all cases: inhibition of tumour cell growth, NCI panel, 48 h
[1] = test system: COLO 205
[2] = test system: OVCAR-3
[3] = test system: NCI-H23
[4] = test system: SW-620
[5] = test system: SK-OV-3
[6] = test system: MDA-MB-231
[7] = test system: HCT-116
[8] = test system: OVCAR-5
[9] = test system: ACHN
[10] = test system: OVCAR-8
[11] = test system: PC-3
[12] = test system: EKVX
[13] = test system: HL-60
[14] = test system: SF-295
[15] = test system: NCI-H460
[16] = test system: DU-145
[17] = test system: Malme-3M
[18] = test system: CCRF-CEM
[19] = test system: UACC-257
[20] = test system: MDA-MB-435

Measured: GI50

COC(=O)c1ccc(C)cc1CC1Cc2ccc(C)cc2C1=O (stereo not given)
inactive: [1] 4.54 µM | [2] 6.17 µM | [3] 15.7 µM | [4] 4.17 µM | [5] 9.08 µM | [6] 14.9 µM | [7] 5.15 µM | [8] 19.5 µM | [9] 22 µM | [10] 12.2 µM | [11] 12.1 µM | [12] 8.04 µM | [13] 3.47 µM | [14] 10.7 µM | [15] 6.61 µM | [16] 22.9 µM | [17] 5.24 µM | [18] 9.91 µM | [19] 13.2 µM | [20] 1.63 µM

CCOC(=O)c1c(SC(=O)c2ccc(OC)cc2)n(-c2ccccc2)c(=S)n(-c2ccccc2)c1=O
inactive: [1] 89.1 µM | [2] 50 µM | [3] 61.9 µM | [4] 26.7 µM | [5] > 100 µM | [6] 24 µM | [7] 23.3 µM | [8] > 100 µM | [9] > 100 µM | [10] 21.8 µM | [11] 59.3 µM | [12] > 100 µM | [13] 40.3 µM | [14] > 100 µM | [15] 84.7 µM | [16] > 100 µM | [17] > 100 µM | [18] 35.6 µM | [19] > 100 µM | [20] 54.6 µM

COC1OC(C)/C(=N/O)C2OC(C)(C)OC12 (stereo not given)
inactive: [1] > 100 µM | [2] > 100 µM | [3] > 100 µM | [4] > 100 µM | [5] > 100 µM | [6] > 100 µM | [7] > 100 µM | [8] > 100 µM | [9] > 100 µM | [10] > 100 µM | [11] > 100 µM | [12] > 100 µM | [13] > 100 µM | [14] > 100 µM | [15] > 100 µM | [16] > 100 µM | [17] > 100 µM | [18] > 100 µM | [19] > 100 µM | [20] > 100 µM

N#Cc1c(N)nc2c3c1NC(=O)C(C(N)=O)C3c1ccccc1O2 (stereo not given)
inactive: [1] > 100 µM | [2] > 100 µM | [3] 71.8 µM | [4] > 100 µM | [5] > 100 µM | [6] 28.6 µM | [7] > 100 µM | [8] > 100 µM | [9] > 100 µM | [10] 42.5 µM | [11] > 100 µM | [12] 37.3 µM | [13] 99.3 µM | [14] 32.1 µM | [15] > 100 µM | [16] 67.6 µM | [17] > 100 µM | [18] 81.1 µM | [19] > 100 µM | [20] > 100 µM

CCOC(=O)/C(C#N)=C/c1ccc(SCc2ccco2)c([N+](=O)[O-])c1
inactive: [1] > 100 µM | [2] > 100 µM | [3] > 100 µM | [4] > 100 µM | [5] > 100 µM | [6] > 100 µM | [7] > 100 µM | [8] > 100 µM | [9] > 100 µM | [10] > 100 µM | [11] > 100 µM | [12] > 100 µM | [13] > 100 µM | [14] > 100 µM | [15] > 100 µM | [16] > 100 µM | [17] > 100 µM | [18] > 100 µM | [19] > 100 µM | [20] > 100 µM

O=NN(CCCl)C(=O)NC1CCCCC1 [LOMUSTINE]
inactive: [1] 41.2 µM | [2] 66.2 µM | [3] 68.5 µM | [4] 27.7 µM | [5] 71.8 µM | [6] 21.6 µM | [7] 38.8 µM | [8] 81.1 µM | [9] 69.3 µM | [10] 52.2 µM | [11] 32.4 µM | [12] 72.8 µM | [13] 17.3 µM | [14] 32 µM | [15] 36.1 µM | [16] 42.1 µM | [17] 57.8 µM | [18] 13 µM | [19] 54.2 µM | [20] 3.36 µM

CCOC(=O)c1ccc(NC(=O)Oc2ccc3c(C)cc(=O)oc3c2)cc1
inactive: [1] 34.2 µM | [2] 32.7 µM | [3] 32.4 µM | [4] 36.2 µM | [5] 29.6 µM | [6] 30.3 µM | [7] 28.2 µM | [8] 23.1 µM | [9] 41.4 µM | [10] 35.5 µM | [11] 38.4 µM | [12] 42.9 µM | [13] 30.4 µM | [14] 30.1 µM | [15] 29.6 µM | [16] 37.2 µM | [17] 42.6 µM | [18] 22.6 µM | [19] 43.2 µM | [20] 35.6 µM

O=C1Oc2ccccc2C(=O)/C1=C\Nc1nc(-c2ccc(O)c(O)c2)cs1
inactive: [1] 2.3 µM | [2] 2.29 µM | [3] 2.81 µM | [4] 2.44 µM | [5] 7.24 µM | [6] 5.7 µM | [7] 2.7 µM | [8] 16.2 µM | [9] 2.88 µM | [10] 4.14 µM | [11] 3.24 µM | [12] 12.7 µM | [13] 2.32 µM | [14] 24.8 µM | [15] 5.05 µM | [16] 4.94 µM | [17] 2.99 µM | [18] 1.23 µM | [19] 3.61 µM | [20] 4.88 µM

CCOc1c2c(cc3c1C(=O)c1c(OC)cccc1C3=O)C=C(OC)CC2
inactive: [1] 21.6 µM | [2] > 25 µM | [3] > 25 µM | [4] 9.98 µM | [5] > 25 µM | [6] > 25 µM | [7] 17.4 µM | [8] > 25 µM | [9] > 25 µM | [10] > 25 µM | [11] 17.8 µM | [12] > 25 µM | [13] 5.62 µM | [14] 10.7 µM | [15] 13.3 µM | [16] > 25 µM | [17] 13.6 µM | [18] 7.8 µM | [19] > 25 µM | [20] 8.04 µM

Cc1ccc(OCC2OC(n3cnc4c(Cl)nc(Cl)nc43)CC2Oc2ccc(C)cc2)cc1 (stereo not given)
inactive: [1] 1.96 µM | [2] 2.37 µM | [3] 1.85 µM | [4] 3.66 µM | [5] 19.2 µM | [6] 2.08 µM | [7] 1.91 µM | [8] 5.78 µM | [9] 1.37 µM | [10] 2.31 µM | [11] 2.44 µM | [12] 3.52 µM | [13] 2.36 µM | [14] 2.52 µM | [15] 1.87 µM | [16] 1.91 µM | [17] 2.18 µM | [18] 4.3 µM | [19] 2.68 µM | [20] 2.26 µM

c1ccc2c3nnc(c2c1)SCCSCCCSCCS3
inactive: [1] > 100 µM | [2] 38 µM | [3] > 100 µM | [4] > 100 µM | [5] 27.8 µM | [6] 22.1 µM | [7] > 100 µM | [8] > 100 µM | [9] 61.1 µM | [10] 56.9 µM | [11] 43.1 µM | [12] > 100 µM | [13] > 100 µM | [14] 31.4 µM | [15] > 100 µM | [16] > 100 µM | [17] 29.6 µM | [18] > 100 µM | [19] > 100 µM | [20] > 100 µM

OC1c2ccccc2[C@@H]2[C@H]1[C@@H](c1ccccc1)C1(Cc3ccccc3C1O)[C@H]2c1ccccc1 (stereo not given in full)
inactive: [1] 1.84 µM | [2] 2.36 µM | [3] 6.4 µM | [4] 5.01 µM | [5] 10.9 µM | [6] 5.22 µM | [7] 3.03 µM | [8] 11.1 µM | [9] 6.37 µM | [10] 5.45 µM | [11] 3 µM | [12] 6.35 µM | [13] 2.01 µM | [14] 6.75 µM | [15] 3.13 µM | [16] 9.86 µM | [17] 5.53 µM | [18] 3.13 µM | [19] 3.93 µM | [20] 2.82 µM

CC1CCC2N(C1)CC1C3(O)CC45OC6(O)C(O)CCC4(C)C6CCC5C3(O)CC(O)C1(O)C2(C)O (stereo not given)
inactive: [1] > 100 µM | [2] > 100 µM | [3] > 100 µM | [4] > 100 µM | [5] > 100 µM | [6] > 100 µM | [7] > 100 µM | [8] > 100 µM | [9] > 100 µM | [10] > 100 µM | [11] > 100 µM | [12] > 100 µM | [13] > 100 µM | [14] > 100 µM | [15] > 100 µM | [16] > 100 µM | [17] > 100 µM | [18] > 100 µM | [19] > 100 µM | [20] > 100 µM

COC(=O)C1=CC(=O)OC1(OO)c1ccc(Br)cc1 (stereo not given)
inactive: [1] 44.3 µM | [2] > 100 µM | [3] > 100 µM | [4] 62.8 µM | [5] > 100 µM | [6] > 100 µM | [7] 47.1 µM | [8] > 100 µM | [9] > 100 µM | [10] > 100 µM | [11] > 100 µM | [12] > 100 µM | [13] 40.3 µM | [14] > 100 µM | [15] > 100 µM | [16] > 100 µM | [17] > 100 µM | [18] 27 µM | [19] > 100 µM | [20] > 100 µM

Source: ChEMBL document CHEMBL1201862, “PubChem BioAssay data set” (2004)
